According to US6872401B2, “Cosmetic/dermatological compositions comprising a tetrahydrocurcuminoid and an amide oil” (L'Oreal, priority 2002, dated 2005):

Experiment: Test of solubility: mixture of tetrahydrocurcuminoids in oils, microscopic examination
Assay type: physicochemical
Conditions: 1 g Tetrahydrocurcuminoids CG adjusted to 10 g with the oil, 15 minutes at 80° C., cooled 24 hours at room temperature
Method: Two amide oils in accordance with the invention are compared to 13 conventional oils used in cosmetics. Their solubilizing power is studied on a mixture of tetrahydrocurcuminoids of formula (I): i.e., the commercial product Tetrahydrocurcuminoids CG from Sabinsa as defined above.
1 g of a mixture of tetrahydrocurcuminoids is weighed and adjusted to 10 g with the oil studied. The mixture is heated for 15 minutes on a waterbath at 80° C. It is allowed to cool for 24 hours at room temperature and a microscopic examination is performed.

With CCCCN(CCC(=O)OCC)C(C)=O [N-acetyl-N-butylaminopropionate] the “SOLUBILITY AFTER 24 HOURS AT ROOM TEMPERATURE” value was “completely dissolve the mixture of tetrahydrocurcuminoids”.
